Measured values published in a melting point compilation (Tetko et al.; mined from patent text by program, amines drawn as free bases though some values may be those of a salt).

melting point [°C]	SMILES
225 to 226	CC(C)(C)OC(=O)N1CCN(C(=O)c2ccc(-c3[nH]nc4c3C(=O)c3c(NC(=O)NN5CCOCC5)cccc3-4)s2)CC1
111 to 114	O=C(OCC1OC(n2ccc(=O)[nH]c2=O)C(O)C1OC(=O)c1ccccc1)c1ccccc1 (stereo not given)
141	COc1ccc(-c2cc3cc(OC)cc([N+](=O)[O-])c3o2)cc1
178 to 181	CC(CC1=C(c2ccc(O)cc2)CCCNC1=O)N1CCCCC1 (stereo not given)
93.5 to 96	CCCCOP(=O)(CCCCC1(C(=O)NCCC)c2ccccc2-c2ncccc21)OCCCC (stereo not given)
231 to 232	CCOCc1nc2c(N)nc3cccnc3c2n1CCCC(N)=O
189 to 190	CCCN1CCN(Cc2nc(-c3ccc4c(c3)Nc3ccccc3S4)cs2)CC1
212 to 214	Cc1ccc(-c2ccc3c(c2)C=C(C(=O)Nc2ccc(CNc4cccnc4)cc2)CC3)cc1
55 to 63	CC1(C)CCSc2c(CC#Cc3ccc(C=O)cc3)cccc21
76 to 78	CCON1C(C)(C)CC(OC(=O)c2ccccc2)CC1(C)C
131 to 133	CCCCC1C(=O)N(C(=O)NCCc2ccc(S(=O)(=O)NC(=O)NC3CCC(C)CC3)cc2)CCC1C (stereo not given)
250 to 260	CS(=O)(=O)c1ccc(-c2cnn(-c3ccc(Cl)cc3F)c(=O)c2-c2ccc(F)cc2)cc1
94	CCOC(=O)c1c2c(nc3ccccc13)CCN(C(=O)OCC)CC2
235 to 238	CCc1cccc(C)c1CNc1cc(C(=O)O)nc2c1nc(C)n2C
144 to 145	COC(=O)Cc1cccc(CC(=O)OC)c1[N+](=O)[O-]
112	CCOc1ccc(-n2nc(C(F)(F)F)nc2-c2ccc(S(C)(=O)=O)cc2)cc1
169 to 170	CCOP(=O)(OCC)c1ccc(CNC(=O)C2=Cc3cc(C4CCCCC4)ccc3CC2)cc1
158 to 160	CCOCc1nc2c(cc(C)n3nnnc23)n1CC(C)C
247	N#CC1=C(C2CCCC2)Nc2n[nH]cc2C1c1cccc(C#N)c1Br (stereo not given)
200 to 201	N#Cc1ccc(N(Cc2ccc(OCc3ccccc3)cc2)n2cnnc2)cc1-c1cc2ccccc2o1
138	Cc1ccccc1Cn1[nH]c(N)cc1=O
50 to 51	O=C(NCCO)C1(c2cccc3nn(Cc4cccc(C(F)(F)F)c4)cc23)C=CC=CN1 (stereo not given)

melting point [°C]	SMILES
276	O=C1CC=Nc2cc3c(cc21)OCO3
146 to 147	Cc1cc(C)c2oc(S)nc2c1C
185 to 187	COC(=O)c1ccc(OC)c([N+](=O)[O-])c1O
51 to 53	C=CCSc1nnc(Cl)c(C)c1C
> 300	Cn1cc(-c2cc3cccnc3[nH]2)c2cc(OCC(=O)O)ccc21
> 270	N#CC1=C(c2cc3ccccc3o2)Nc2n[nH]cc2C1c1cccc2nonc12 (stereo not given)
146 to 147	CNC(=C[N+](=O)[O-])NCCSCc1ncccc1OC
254 to 255	O=C1CCCc2c(-c3ccccc3)[nH]c(-c3ccncc3)c21
155 to 160	O=C1c2ccccc2C(=O)c2c1cccc2N1CCC(C2CCNCC2)CC1
144	COC(=O)c1ccc(C(=O)N2CCN(c3ncccc3N)CC2)cc1
137 to 138	C/C(=N\OCCN1CCOCC1)[C@H]1CC[C@H]2[C@@H]3CC=C4C[C@@H](O)CC[C@]4(C)[C@H]3CC[C@]12C
258 to 259	CC1=NN(c2cc(Cl)c(Sc3ccc(Cl)cc3)c(Cl)c2)C(=O)NC1
264 to 266	CNc1nc(-c2cc(C)c(O)c(C)c2)cc2ccc(CN3CCN(C)CC3)cc12
356 to 358	C(=Cc1ccc(-c2cc3cc(-c4ccccc4)ccc3o2)cc1)c1ccc(-c2ccccc2)cc1
186 to 187	CSc1nn(-c2c(Cl)cc(Cl)cc2Cl)c(N(C)C)c1CC1C(=O)NC(=O)c2ccccc21 (stereo not given)
257 to 260	Cc1ccccc1C(=O)Nc1ccc(C(=O)N2CCc3cnoc3-c3ccccc32)cc1
153 to 155	CCCOc1ccc(-c2ccc3c(c2)C=C(C(=O)OC)CCS3(=O)=O)cc1
83 to 85	CONCc1cc(-n2c(=O)cc(C(F)(F)F)n(C)c2=O)ccc1Cl
141 to 143	COc1ccc(C2=NN(CCCCCCN)C(=O)[C@H]3CC=CC[C@@H]23)cc1OC (relative stereo)
74 to 75	Cc1onc(-c2c(F)cccc2Cl)c1C(=O)CBr
174 to 175	COc1ccc(-c2cccc(NC(N)=O)c2)cc1OC1CCCC1
126 to 128	Cc1cc(-c2nnn(C)n2)cc(C)c1OCCCn1ncnc1C

melting point [°C]	SMILES
138 to 158	O=C(CCCCCCCCC(=O)OC1CC(c2ccccc2)N(O)C(c2ccccc2)C1)OC1CC(c2ccccc2)N(O)C(c2ccccc2)C1 (stereo not given)
180 to 181	CC(C)(C)OC(=O)OCn1c(C(=O)Nc2nc(-c3ccccc3)c(CCO)s2)cc2ccccc21
127 to 129	COc1ccc(C2(C(=O)Oc3ccc(C(=O)NO)cc3)CCCCC2)cc1
211 to 213	CNc1ncc2c(n1)N(c1ccccc1)C(=O)N(c1c(Cl)cccc1Cl)C2
87 to 89	CCCCCCCCCCCCCCCCCCCCOC(=O)P(=O)(O)O
195 to 197	COc1cc([N+](=O)[O-])c2nc(N)ccc2c1
166 to 168	CC1(C)CC(=O)c2c(Br)cn(-c3ccccn3)c2C1
192 to 194	CNC(=O)c1cc2c(Oc3ccc(-n4cccn4)cc3)cncc2s1
141 to 143	COCc1cc(Oc2c(Cl)cc(C(F)(F)F)cc2Cl)n[nH]1
98 to 99	c1ccc(-c2cc(OCC3CO3)no2)cc1 (stereo not given)
122 to 126	CCCCC(CC)C(=O)Nc1ccc2ccn(Cc3ccc(C(=O)NS(=O)c4ccccc4)cc3OC)c2c1 (stereo not given)
189 to 192	Cc1cc(Br)c2c(c1)/C(=N\NC(N)=O)C(=O)N2CCN(C(C)C)C(C)C
187 to 190	CC1=C(C(=O)O)C(c2ccccc2Cl)C(c2nnco2)=C(C)N1 (stereo not given)
120 to 122	CCCN1CCc2cc(NC(=O)C(=O)N[C@H]3CCOC3O)ccc21 (stereo not given in full)
118 to 119	NS(=O)(=O)NC[C@H]1COc2ccc(Cl)cc2O1
143	N#CC1NC(CO)C(O)C(O)C1O (stereo not given)
118 to 120	COCCOCCn1cc(C(=O)NCc2ccc(Cl)cc2)c(=O)c2cc(CN(C)CC#N)ccc21
105 to 108	CCC1(CC)OC(=O)C(Cn2cncn2)(c2ccc(Cl)cc2)O1 (stereo not given)
107 to 108	Cc1ccc(C)c2c1C(=O)N(CCl)S2(=O)=O
158 to 159	OCC(O)(Cc1ccc(Cl)cc1Cl)c1cccnc1 (stereo not given)
> 300	O=c1[nH]c2ccc(S(=O)(=O)O)cc2[nH]c1=O

SMILES	melting point [°C]
COc1ccc2c(c1)C13CCN(C)C(C2)C1OCOC3 (stereo not given)	134 to 135
COC(=O)CN1C(=O)CN=C(c2ccccc2Cl)c2ccccc21	166 to 168
NC(CC(=O)O)C1CC=CCC1 (stereo not given)	208 to 210
CCOC(=O)c1cccc2c1c(C(=O)C(=O)NC1=CC(=O)OC1)cn2Cc1ccc(Cl)cc1	242 to 244
CP(=O)(CCl)C1CCCCC1 (stereo not given)	51 to 53
